The source of these data is patent US9809582B2, “Aminoester derivatives” (CHIESI FARMACEUTICI S.p.A., priority 2015, dated 2017).

The IC50 is the concentration at which inhibition is half-maximal.

For assay [1] the following is noted: cited from earlier work.
The target of the next assay is Human recombinant PDE4B2 (Homo sapiens (Human), UniProt Q07343). Put plainly: PDE4B2 HTRF assay. The assay is classed as biochemical. Particulars: PDE4B2 HTRF assay; read-out: PDE4B2 IC50 Activity. As for the experimental part: PDE4B2 activity is detected using the LANCE Ultra cAMP homogeneous time resolved fluorescence resonance energy transfer (TR-FRET) assay from Perkin Elmer. The assay is based on the competition between the europium (Eu) chelate-labeled cAMP tracer and sample cAMP for binding sites on cAMP-specific monoclonal antibodies (mAb) labelled with the ULight™ dye. The assay is carried out in 384-well low volume plates in a volume of 10 μl. Human recombinant PDE4B2 (80 pM) is incubated for 2 h with 3 nM cAMP in buffer containing 1×HBSS, 5 mM HEPES, 3 mM MgCl2, 0.1% BSA, pH 7.4 with or without test compounds. The enzymatic reactions are efficiently stopped by the addition of 500 μM IBMX present in the combined Stop/Detection buffer containing europium (Eu) chelate-labeled cAMP tracer and cAMP-specific monoclonal antibodies (mAb) labelled with the ULight™ dye. […] IC50 values are determined from competition curves using a non-linear curve fitting program.
(In general: TR-FRET usually uses a lanthanide donor and a delayed reading to cut background.)

For another assay, the target named is Human M3 receptor (Homo sapiens (Human), UniProt P20309). Kind of assay: M3 receptor radioligand binding assay. The following applies: M3 Receptor radioligand binding assay; read-out: M3 IC50 Activity. Here is the method:
M3 Receptor Radioligand Binding Assay:
The assay is carried out in 96-well polypropylene plates in a volume of 250 μl. […] The final assay concentration of DMSO is 0.5% (v/v). The plates are sealed and incubated for 2 h at room temperature on an orbital shaker (slow speed). Membranes are harvested onto 96-well unifilter GF/C filter plates pre-treated with 0.5% polyethyleneimine (v/v), using a filter manifold, washed four times with […] of assay buffer. The plates are dried before addition of 50 μl of microscint-0, sealed then read in a Trilux Microbeta scintillation counter. IC50 values are determined from competition curves using a non-linear curve fitting program. Ki values are calculated from IC50 values by the Cheng and Prusoff equation.

Setting [2] is: patients with severe disease, frequent exacerbations and mucus hypersecretion.

Chain of Human recombinant PDE4B2 (Q07343 other isoform, or with tags, fused parts or gaps): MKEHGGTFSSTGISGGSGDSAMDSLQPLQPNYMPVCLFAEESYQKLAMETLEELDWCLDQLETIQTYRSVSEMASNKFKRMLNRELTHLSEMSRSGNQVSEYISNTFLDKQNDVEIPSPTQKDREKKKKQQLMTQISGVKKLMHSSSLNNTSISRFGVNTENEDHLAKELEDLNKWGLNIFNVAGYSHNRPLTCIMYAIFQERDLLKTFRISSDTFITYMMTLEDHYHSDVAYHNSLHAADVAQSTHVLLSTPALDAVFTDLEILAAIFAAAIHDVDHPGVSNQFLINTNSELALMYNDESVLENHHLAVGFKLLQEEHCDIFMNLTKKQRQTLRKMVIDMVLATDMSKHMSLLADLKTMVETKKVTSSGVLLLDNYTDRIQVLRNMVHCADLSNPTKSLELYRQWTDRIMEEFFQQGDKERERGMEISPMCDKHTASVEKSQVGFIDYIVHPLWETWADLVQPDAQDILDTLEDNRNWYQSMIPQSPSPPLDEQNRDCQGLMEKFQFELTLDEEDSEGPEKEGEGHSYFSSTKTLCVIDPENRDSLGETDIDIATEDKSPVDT
Chain of Human M3 receptor (P20309 whole entry): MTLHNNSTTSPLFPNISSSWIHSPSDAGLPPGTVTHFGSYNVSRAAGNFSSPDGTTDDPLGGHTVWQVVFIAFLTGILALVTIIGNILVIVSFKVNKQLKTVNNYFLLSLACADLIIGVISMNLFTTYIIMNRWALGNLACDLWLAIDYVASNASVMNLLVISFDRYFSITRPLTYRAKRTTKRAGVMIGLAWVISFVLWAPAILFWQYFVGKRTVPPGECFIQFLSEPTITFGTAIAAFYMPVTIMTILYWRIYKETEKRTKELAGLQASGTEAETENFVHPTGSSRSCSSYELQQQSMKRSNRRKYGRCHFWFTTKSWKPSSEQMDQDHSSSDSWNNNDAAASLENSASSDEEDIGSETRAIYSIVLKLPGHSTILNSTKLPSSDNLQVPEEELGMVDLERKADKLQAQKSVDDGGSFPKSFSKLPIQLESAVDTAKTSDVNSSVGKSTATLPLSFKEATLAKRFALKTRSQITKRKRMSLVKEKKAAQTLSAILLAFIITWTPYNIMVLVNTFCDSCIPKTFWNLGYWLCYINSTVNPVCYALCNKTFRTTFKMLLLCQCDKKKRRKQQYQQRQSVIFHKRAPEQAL

In the case of `O=C(Nc1c(Cl)cncc1Cl)c1ccc(OC(F)F)c(OCC2CC2)c1` [roflumilast], in assay [1] (COPD patients, oral, given over four weeks), the “reduction of the numbers of neutrophils in sputum” value was 36%. Moreover, in assay [1] (setting [2]), the “improvement of FEV 1” value is recorded as “approximately 50 mL” and the reduction of exacerbation result was “about 15%”.
On to `COc1ccc([C@H](Cc2c(Cl)c[n+]([O-])cc2Cl)OC(=O)c2ccc(CNCC(C)(C(=O)OC3CCN(C)CC3)c3ccccc3)s2)cc1OC` (stereo partly drawn) [Example 25, [(1S)-2-(3,5-dichloro-1-oxido-pyridin-1-ium-4-yl)-1-(3,4-dimethoxyphenyl)ethyl] 5-[[[2-methyl-3-[(1-methyl-4-piperidyl)oxy]-3-oxo-2-phenyl-propyl]amino]methyl]thiophene-2-carboxylate], for which the values for the IC50 at Human recombinant PDE4B2 and on Human M3 receptor were 1 to 10 nM and 10 to 100 nM, respectively.
